# Experimental data taken from patent US5723494A, “Derivatives of glutamic and aspartic acids, a method of preparing them, and their use as drugs for enhancing memory and learning” (priority 1993, dated 1998).
# Legend:
# [1] = Antiamnesic activity in the mouse (step-down passive avoidance, amnesia induced by ECS); type: in vivo, mouse (CD1 male); conditions: mouse; for Antiamnesic activity (in words) / ED50: OS; for change in vivo at 10 mg/kg: 10 mg/kg OS; for change in vivo at 3 mg/kg: 3 mg/kg OS; for change in vivo at 30 mg/kg: 30 mg/kg OS; for ED50: 60 min before training, read-out: ID50 (antiamnesic activity, dose inhibiting the amnesic effect of the ECS by 50%)
# From the text: 1) Antiamnesic activity in the mouse (step-down passive avoidance)
# An electroconvulsive shock (ECS) produces retrograde amnesia in the test animal if applied immediately after the training received, for example, a harmful stimulus of a suitable intensity.
# The object of the experiment was to study the effects of the compounds of the invention in antagonizing the amnesic effect of an ECS on the short-term memory consolidation process.
# CD1 male mice which weighed about 30-35 g, and had not fasted were used. The equipment used was a rectangular plexiglass cage (21×21×40cm) with an electrifiable grid floor and a wooden cube (4×4×4 cm) fixed in the centre of the cage. The animals were treated orally with the product under test 60 minutes before the training.
# The mouse was placed delicately on the wooden cube and the time it took to descend to the grid floor (SDL=step-down latency) was measured. When all four of the animal's paws were resting on the floor the continuous 0.2 mA shock started and the time taken by The mouse to remount the wooden cube (EL=escape latency) was measured.
# The animals with an SDL of between 3 and 30 sec and with an EL of between 3 and 60 sec were used for retesting.
# Immediately afterwards, a transcorneal ECS was applied with the use of the following parameters: amperage 15 mA, frequency 50 Hz, duration of the train of pulses 0.4 sec. duration of each individual pulse 1 msec., interval between pulses 20 msec. As well as the groups treated with ECS, a control group without ECS and a control group with ECS were used.
# The retest was carried out after 24 h.
# The results are expressed as the percentage variation of the SDL of the treated groups in comparison with the control group by means of this formula: [formula]
# [2] = Memory-enhancement activity in the passive avoidance test in the rat; type: in vivo, rat (male Wistar); conditions: rat; for change in vivo at 0.1 mg/kg / change in vivo at 1 mg/kg / change in vivo at 10 mg/kg: 96 h, 6 treatments, read-out: % variation vs controls (FS) in step through latency; for change in vivo at 0.1 mg/kg: 0.1 mg/kg IP; for change in vivo at 0.1 mg/kg / change in vivo at 1 mg/kg / change in vivo at 10 mg/kg / Activity in increasing the avoidance time (in words): retest on the 4th day; for change in vivo at 1 mg/kg: 1 mg/kg IP; for change in vivo at 10 mg/kg: 10 mg/kg IP
# Procedure: 2) Memory-enhancement activity in the "passive avoidance" test in the rat
# A "passive avoidance" model was used, which required a single "step-through" situation and a retest of the "retention memory" 72 h after the training.
# Male Wistar rats which weighed about 200 g and had not fasted, were used. The test consisted of evaluating the degree of memory of an animal after it had been trained as follows.
# The equipment used was a shuttle box modified thus: one compartment was lined with black card including the cover, and a 60 W lamp was disposed above the other, spaced from the grid floor by about 40 cm. The two compartments were divided by an automatic guillotine-like door. Each animal was placed in the compartment in the light with the guillotine-likedoor open. From this moment, the time taken by the rat to go into the compartment lined with black card (the dark compartment) (the step-throughlatency=STL) was measured. The animals which took more than 30 sec to go into the dark were discarded. Once they had gone into the dark, the door was lowered automatically and a=0.1 mA shock lasting 5 sec (a foot shock=FS) started. After 10 sec, the animal was removed from the shuttle box.
# Upon completion, the animals were selected randomly in homogeneous groups and treated with the products.
# The retest to determine memory was made after 72 hours. The products were administered chronically in the preselected manner twice per day and the last treatment 30 min before the retest (6 treatments altogether).
# The memory-retention test (the retest) consisted of placing each animal, treated 30 min beforehand with a physiological solution or with the product, in the compartment which was not lined with black card for 30 sec.
# The results are expressed as the percentage variation of the STL (in seconds) of the groups treated in comparison with the control group by means of this formula: [formula]
# [3] = Antidepressant activity in the behavioural despair test in the mouse; type: in vivo, mouse (male CD1); conditions: for inhibition in vivo at 3 mg/kg: 3 mg/kg IP; for inhibition in vivo at 10 mg/kg: 10 mg/kg IP; for inhibition in vivo at 30 mg/kg: 30 mg/kg IP
# From the text: 5) Antidepressant activity in the "behavioural despair test" Another interesting aspect of the pharmacological activity of these products is the potent antidepressant activity which some of them display in an experimental model in the mouse, in which a state of depression is induced experimentally by the method of Porsolt et al. (Arch. Int. Pharmacodyn. 229, p. 327-336 (1977)). Male CDl mice which weighed about 20-25 g and had not fasted were used. The test consisted of inducing a state of depression in the animal which was subjected to forced swimming in a glass cylinder from which it could not escape. After a short period of vigorous activity the mouse adopted a characteristic posture of immobility which was easily identifiable; this immobility is reduced by antidepressant drugs. 1 l glass beakers, filled to 700 ml with water at a temperature of 25° C. were used for the test. The mice, 8 per group, were treated intraperitoneally with the drug under test, 30 minutes before the test. At time 0, each animal was immersed in a beaker and, after one minute during which all moved about swimming vigorously in order to escape, regardless of treatment, the observer, who was unaware of the treatment, assigned the following points: 0=animal immobile 1=minimum movement to remain afloat 2=vigorous swimming The greater the antidepressant activity of the drug, the more the animals will move about in order to try to escape from the water. The points were assigned every 15 sec for a total period of 5 min with a total of 20 observations. The antidepressant activity was determined with the use of various doses of the compound by the regression method as the ED50, that is, the dose in mg/kg of the compound which could antagonise the animal's immobility time by 50%.
# [4] = target: excitor amino-acid receptors of cortical membranes ("forebrain") of rats; test: Inhibition of the specific binding of [3H]-glutamate to rat forebrain membranes; conditions: for IC50: rat forebrain membranes, 20 min, 37° C., pH 7.1
# From the text: 6) Studies on binding to rat "forebrain" membranes
# L-glutamate recognizes all three receptor subtypes indicated above, al though not selectively. It is therefore desirable to evaluate the capacity of each of the compounds of the invention to interact with the excitor amino-acid receptors of the CNS.
# "Forebrain", that is, the cerebral cortex and the hippocampus, were selected as the receptor tissue and ^3 H-L-glutamate as the ligand for marking this heterogenous receptor population.
# Rat cerebral tissue (forebrain without striated tissue) was therefore homogeneised cold in tris buffer at pH 7.4. After washing and centrifuging, the final pellet was resuspended in 50 volumes of tris HCl binding buffer at 7.1. 0.5 ml of receptor membrane thus obtained were then incubated, together with the radioactive tracer and the compounds under test, for 20 min at 37° C. The reaction was terminated by separating the bound radio-ligand from the free radio-ligand by filteration on glass-fibre filters which, after washing, were counted in a liquid scintillator (a β-counter) thus determining the radioactivity associated with the pellet. The specific binding was determined as the difference between the binding in the absence and in the presence of cold 3.6 mM L-glutamate.
# [5] = po, retest 24 h after training, read-out: Reversal of the amnesia (% vs controls), as the increase in the Step Down Latency
# [6] = 5 min, 5 minutes, read-out: Decrease in immobility (as %) vs the controls
Structure (SMILES),IC50 [4] [µM],Antiamnesic activity (in words) [1],"change in vivo at 10 mg/kg [1, 5] [%]",change in vivo at 0.1 mg/kg [2] [%],change in vivo at 1 mg/kg [2] [%],change in vivo at 10 mg/kg [2] [%],Activity in increasing the avoidance time (in words) ([2]; IP),"inhibition in vivo at 3 mg/kg [3, 6] [%]","inhibition in vivo at 10 mg/kg [3, 6] [%]","inhibition in vivo at 30 mg/kg [3, 6] [%]",ED50 (dose antagonising immobility time by 50%) ([3]; IP),"change in vivo at 3 mg/kg [1, 5] [%]","change in vivo at 30 mg/kg [1, 5] [%]",ED50 ([1]; po) [mg/kg],other results
N[C@H](CCC(=O)O)C(=O)NCCC12CC3CC(CC(C3)C1)C2 [Compound 17],312,completely inactive,10,0,0,0,inactive,7,12,0,Inactive,–,–,–,"change in vivo at 0.1 mg/kg ([1]; po, 0.1 mg/kg OS, retest 24 h after training, read-out: Reversal of the amnesia (% vs controls), as the increase in the Step Down Latency): 0%; change in vivo at 1 mg/kg ([1]; po, 1 mg/kg OS, retest 24 h after training, read-out: Reversal of the amnesia (% vs controls), as the increase in the Step Down Latency): 14%; Antidepressant activity (in words) ([3]; IP): inactive"
N[C@@H](CCC(=O)O)C(=O)N1CCC2(CCCC2)CC1 [Compound 30],368,–,–,–,–,–,–,0,25,20,Not Calculable,–,–,–,–

# Compounds with a lower IC50 [4], results first:
IC50 [4] [µM],Structure (SMILES),Antiamnesic activity (in words) [1],"change in vivo at 10 mg/kg [1, 5] [%]",change in vivo at 0.1 mg/kg [2] [%],change in vivo at 1 mg/kg [2] [%],change in vivo at 10 mg/kg [2] [%],Activity in increasing the avoidance time (in words) ([2]; IP),"inhibition in vivo at 3 mg/kg [3, 6] [%]","inhibition in vivo at 10 mg/kg [3, 6] [%]","inhibition in vivo at 30 mg/kg [3, 6] [%]",ED50 (dose antagonising immobility time by 50%) ([3]; IP),"change in vivo at 3 mg/kg [1, 5] [%]","change in vivo at 30 mg/kg [1, 5] [%]",ED50 ([1]; po) [mg/kg],other results
14.4,N[C@@H](CCC(=O)O)C(=O)NC1CCCCCC1 [Compound 20],–,41,7,20,36,considerable activity in increasing the avoidance time,0,11,52,–,15,61,17.3,"ED30 ([2]; IP, read-out: ED30 (dose increasing the latency time (STL) by 30%)): 4.2 mg/kg; ED50 ([3]; IP, read-out: ED50 (dose antagonising immobility time by 50%)): 36.1 mg/kg; Activity in inhibiting the binding of glutamate (in words) ([4]; rat cortical membranes): considerable activity in inhibiting the binding of the glutamate"
61.2,N[C@@H](CCC(=O)NCCC12CC3CC(CC(C3)C1)C2)C(=O)O [Compound 45],less active,20,0,0,12,–,–,–,–,–,3,55,28.9,–
70.7,"CC1(C)CCC(NC(=O)CC[C@H](N)C(=O)O)CC1 [Compound 48, 1-(4,4-dimethylcyclohexyl)-L-glutamine]",–,–,6,0,18,–,9,18,38,Not Calculable,–,–,–,"inhibition in vivo at 1 mg/kg ([3]; 5 min, 1 mg/kg IP, 5 minutes, read-out: Decrease in immobility (as %) vs the controls): 0%"
